Assay results reported in patent US9637462B2, “Process for the preparation of N-iodoamides” (TECHNION RESEARCH & DEVELOPMENT FOUNDATION LIMITED, priority 2013, dated 2017).

Assay: Distribution coefficient (K) of amides between water-immiscible organic solvent and water (recovery of amides from aqueous solution)
Type: physicochemical
Conditions: CCl4 / water (equal volumes), 25° C., stirred 0.5 h
Experimental: A mixture of amide (weight of amide (W): 0.2-0.5 g), water (20-100 mL) and water immiscible organic solvent (the same volume as water) was stirred at 25° C. for 0.5 h. The organic layer was thoroughly separated, dried over Na2SO4, filtered and concentrated in vacuo to recover the amide. Distribution coefficient K was calculated according to the formula K=Wo/W−Wo, where Wo is weight of the recovered amide in g. Distribution coefficients of 3,5,5-trimethylhydantoin (3,5,5-TMH), 4,4-dimethyloxazolidin-2-one (DMO), 5,5-dimethylhydantoin (DMH) and succinimide in hexane, benzene, CCl4 and DCM are shown in Table 3.1.

Row | SMILES | Distribution coefficient (K)
1 | CN1C(=O)NC(C)(C)C1=O [3,5,5-TMH, 3,5,5-trimethylhydantoin] | 0.1≦
2 | CC1(C)COC(=O)N1 [DMO, 4,4-dimethyloxazolidin-2-one] | 0.1≦
3 | CC1(C)NC(=O)NC1=O [DMH, 5,5-dimethylhydantoin, reference compound] | 0.1≦
4 | O=C1CCC(=O)N1 [succinimide, reference compound] | 0.1≦

Same assay, conditions: DCM / water (equal volumes), 25° C., stirred 0.5 h

Row | SMILES | Distribution coefficient (K)
5 | CN1C(=O)NC(C)(C)C1=O [3,5,5-TMH, 3,5,5-trimethylhydantoin] | 1.6
6 | CC1(C)COC(=O)N1 [DMO, 4,4-dimethyloxazolidin-2-one] | 0.5
7 | CC1(C)NC(=O)NC1=O [DMH, 5,5-dimethylhydantoin, reference compound] | 0.1≦
8 | O=C1CCC(=O)N1 [succinimide, reference compound] | 0.1≦

Same assay, conditions: PhH (benzene) / water (equal volumes), 25° C., stirred 0.5 h

Row | SMILES | Distribution coefficient (K)
9 | CN1C(=O)NC(C)(C)C1=O [3,5,5-TMH, 3,5,5-trimethylhydantoin] | 0.1≦
10 | CC1(C)COC(=O)N1 [DMO, 4,4-dimethyloxazolidin-2-one] | 0.1≦
11 | CC1(C)NC(=O)NC1=O [DMH, 5,5-dimethylhydantoin, reference compound] | 0.1≦
12 | O=C1CCC(=O)N1 [succinimide, reference compound] | 0.1≦

Same assay, conditions: hexane / water (equal volumes), 25° C., stirred 0.5 h

Row | SMILES | Distribution coefficient (K)
13 | CN1C(=O)NC(C)(C)C1=O [3,5,5-TMH, 3,5,5-trimethylhydantoin] | 0.1≦
14 | CC1(C)COC(=O)N1 [DMO, 4,4-dimethyloxazolidin-2-one] | 0.1≦
15 | CC1(C)NC(=O)NC1=O [DMH, 5,5-dimethylhydantoin, reference compound] | 0.1≦
16 | O=C1CCC(=O)N1 [succinimide, reference compound] | 0.1≦

Assay: not given
Conditions: not given

Row | SMILES | melting point
17 | CN1C(=O)N(I)C(C)(C)C1=O [1-ITMH, 1-iodo-3,5,5-trimethylhydantoin] | 198 to 199 °C (dec.)
18 | CN1C(=O)N(I)C(=O)C1(C)C [3-ITMH, 3-iodo-1,5,5-trimethylhydantoin] | 213 to 214 °C (dec.)
19 | CC1(C)COC(=O)N1I | 148 to 149 °C (dec.)

Assay: shake-flask, equal volumes, gravimetric recovery from organic layer
Conditions: 25 °C

Row | SMILES | partition coefficient dichloromethane / water
20 | CN1C(=O)NC(C)(C)C1=O [3,5,5-TMH, 3,5,5-trimethylhydantoin] | 1.6 mass ratio (equal phase volumes)
21 | CC1(C)COC(=O)N1 [DMO, 4,4-dimethyloxazolidin-2-one] | 0.5 mass ratio (equal phase volumes)
